Substitutions are numbered along the chain they refer to.
Columns and labels:
GDAP1ΔTM [1] = biological target: T1, GDAP1ΔTM (Mus musculus, UniProt O88741); assay: anti-4HNE Western blot of Michael adduct formation, Hill fit; type: biochemical
T1 sequence (O88741 1-322): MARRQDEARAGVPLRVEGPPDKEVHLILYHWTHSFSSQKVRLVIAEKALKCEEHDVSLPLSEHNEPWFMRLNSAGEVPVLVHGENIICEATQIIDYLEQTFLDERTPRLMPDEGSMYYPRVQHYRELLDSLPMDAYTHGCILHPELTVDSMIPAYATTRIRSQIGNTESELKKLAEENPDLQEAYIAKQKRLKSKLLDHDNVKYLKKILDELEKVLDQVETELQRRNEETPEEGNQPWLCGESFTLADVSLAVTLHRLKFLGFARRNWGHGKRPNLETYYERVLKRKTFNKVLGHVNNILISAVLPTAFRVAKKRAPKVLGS

GDAP1ΔTM [2] = biological target: T1, GDAP1ΔTM; assay: native PAGE titration, band quantification, Hill fit; type: binding
GDAP1ΔTM [3] = biological target: T2, GDAP1ΔTM (Mus musculus, UniProt O88741, T157P); assay: as above; type: binding
T2 sequence (O88741 1-322 T157P): T1 sequence (O88741 1-322) with T157P

GDAP1ΔTM [4] = biological target: T1, GDAP1ΔTM; assay: fluorescence polarization, N-terminally fluorescein-labelled protein; type: binding

SMILES | EC50 (GDAP1ΔTM [1]) [µM] | Kd (GDAP1ΔTM [2]) [µM] | Kd (GDAP1ΔTM [3]) [µM] | Kd (GDAP1ΔTM [4]) [µM]
CCCCCC(O)/C=C/C=O (stereo not shown) [4-hydroxynonenal] | 241 ± 52 | 398 | 1330 ± 259 | 
O=C(O)CCCCCCCCCCCCCCC(=O)O [thapsic acid] |  |  |  | ~34

— paper doi:10.1101/2022.10.28.514248v1 (biorxiv, 2022)
